Experimental data as given in patent US20160279207A1, “TARGETING GDF6 AND BMP SIGNALING FOR ANTI-MELANOMA THERAPY” (University of Massachusetts, priority 2015, published 2016).
Entries after “also recorded” stand apart in the source; their conditions may differ.

Columns and labels:
BMP signaling = experiment: Western blot of phospho-SMAD1 relative to total SMAD in DMH1-treated A375 cells; format: cell-based, human; details: 10 μM DMH1 vs control media
Description: Protein extracts were prepared as previously described (S. D. Epstein L B, Hunte-McDonough B, harris C A, Cytokines: A pratical approach (Balkwill F R., ed). 81-93 (1991)). Extracts were separated on 12% SDS-PAGE gels. Blots were probed with primary antibodies (GDF6 (Sigma PRS4691; 1:1000), phospho-SMAD1/5/8 (Cell Signaling 13820; 1:1000), SMAD1 (Cell Signaling 9743; 1:500), Total SMAD1/5/8 (Santa Cruz sc-6031-R; 1:1000), FLAG (Sigma F3165, 1:2000), GAPDH (Abcam 8245; 1:2000)) overnight at 4° C., washed five times in TBS plus 0.1% Tween (TBST) and then incubated with the appropriate HRP-conjugated secondary antibody (Jackson Labs) for 1 hour at room temperature. Membranes were washed five times in TBST and visualized on autoradiography film after incubating with ECL reagent (Supersignal West Pico or Supersignal West Femto; Thermo Scientific).

A375 melanoma cells [1] = experiment: Growth curves of A375 cells by direct cell counting; format: cell-based, human; details: 10 μM DMH1 vs control
Description: (§1) For growth curves 50,000 live cells were seeded per well in a 6-well tissue culture plate on day 0. The numbers of live cells were calculated every day using an automated cell counter (Nexcelom Bioscience Cellometer Auto T4) following standard procedures. All assays were performed with technical replicates. For clonogenic assays, 3,000 live cells were seeded in a 10 cm tissue culture plate. After 3 weeks, colonies were fixed and stained using bromophenol blue in acetone. ImageJ was used to quantify the number of colonies. In assays with DMH1 treatment, control or DMH1-containing media was replaced every other day. For soft agar assays a 0.5% bottom layer (1:1 with 1% agar and 2X DMEM with 20% FBS) and a 0.3% top layer (1:1 with 0.6% agar and 2× DMEM with 20% FBS) were used. 3,000 live cells per well of a 6-well tissue culture plate were added in the top layer. Media was added initially then replaced every 3 days. After 3 weeks, colonies were stained with nitroblue tetrazolium chloride overnight at 37° C. Once stained, individual wells were photographed, and ImageJ was used to count the number of colonies. All these assays were done in triplicate, and experiments were repeated at least twice. A representative image of each has been shown.

SKMEL28 melanoma cells = experiment: Growth curves of SKMEL28 cells by direct cell counting; format: cell-based, human; details: DMH1 vs control
Description: as §1

A375 melanoma cells [2] = experiment: Clonogenic growth (colony formation) assay; format: cell-based, human; details: A375-EMPTY vs A375-SMAD1DVD, 10 μM DMH1 in 0.1% DMSO
Description: as §1, with “After 3 weeks, colonies were fixed and stained using bromophenol blue in acetone.” left out

A375 melanoma cells [3] = experiment: A375 melanoma xenograft in nude mice, tumor volume; format: in vivo, mouse; details: 25 mg/kg DMH1 intraperitoneally every other day, A375 cells in BALB/c nu/nu mice
Description: An art-accepted model to test for an agent's effects on melanoma is that of using immunocompromised (“nude”) mice which are then injected subcutaneously with melanoma cells, and then concomitant with injection of the cells, sometime after injection, and/or after tumor establishment, the test agent is appropriately administered (e.g., intravenously, peritoneally, orally, etc.). Control and treated animals are monitored in part for tumor growth, tumor stabilization, and tumor regression (see for example, Yang et al. 2010. Cancer Res., 70:5518-5527 and Bollag et al. 2010. Nature. 467:596-599).
All animal protocols were approved by the UMMS Institution Animal Care and Use Committee (A-2016, A-2171). Mice were randomly allocated to individual experimental groups. No blinding was done as animal groups were identified by tagging and cage labeling. Animals were excluded, according to pre-established criteria, if the tumor volume reached >1,000 mm^3; if tumor size or location affected the mobility or general health of animal, the animal was euthanized and excluded from the experiment or the complete experiment was terminated. A375 cells stably expressing an EGFP or GDF6 or SMAD1 shRNA and/or empty vector or GDF6-expressing vector or SMAD1DVD-overexpressing vector were subcutaneously injected into the flanks of 6-8-week-old BALB/c nu/nu female mice (Taconic Farms) to produce orthotopic primary tumor. Primary tumor growth was monitored every 3 days with calipers, and the tumor volume was calculated as described previously (C. Gazin, N. Wajapeyee, S. Gobeil, C. M. Virbasius, M. R. Green, An elaborate pathway required for Ras-mediated epigenetic silencing. Nature 449, 1073-1077 (2007)). For GDF6 knockdown, SMAD1 knockdown and epistasis experiments, 1×10^7 live cells were injected. For GDF6 overexpression experiments, 1×10^6 live cells were injected. For GDF6 overexpression and GDF6 knockdowns, a representative of two independent experiments (n=3 animals per experiment) is shown. For DMH1 drug experiments, 1×10^6 live A375 cells were subcutaneously injected in the flanks of BALB/c nu/nu female mice. Beginning on the day cells were injected, mice were injected intraperitoneally with vehicle 12.5% 2-hydroxypropyl-β-cyclodextrin or 25 mg/kg DMH1 in vehicle every other day. The growth of the tumor was monitored as described above. This experiment was repeated twice and the weighted average of both experiments (n=8 total) is represented.

CC(C)Oc1ccc(-c2cnc3c(-c4ccnc5ccccc45)cnn3c2)cc1 [DMH1]
level of phospho-SMAD1 relative to total SMAD protein (BMP signaling): reduced level of phospho-SMAD1 relative to total SMAD protein
A375 melanoma cell growth (growth curves) (A375 melanoma cells [1]): grew more slowly than did control cells; also recorded: inhibits A375 melanoma cell growth
SKMEL28 melanoma cell growth (growth curves) (SKMEL28 melanoma cells): grew more slowly than did control cells
colony formation of DMH1-treated cells expressing SMAD1DVD (A375 melanoma cells [2]): reversed by SMAD1DVD
tumor growth (tumor volume over time), DMH1 vs vehicle (A375 melanoma cells [3]): smaller tumors arose and grew more slowly; also recorded: decreased tumorigenicity; also recorded: abrogates melanoma growth in mouse xenografts in vivo
